Measurements published in patent US20080038198A1, “Method Of Screening Molecule Associated With Psychiatric Disorder” (MITSUBISHI PHARMA CORPORATION, priority 2004, published 2008).
Entries after “also recorded” stand apart in the source; their conditions may differ.

Experiments:
Type in all cases: in vivo, Caenorhabditis elegans
nematodes [1] = assay: imipramine treatment: number of eggs laid during 90 minutes
Method: Nematodes washed with S-basal buffer were transferred onto a 35-mm assay plate prepared by applying imipramine (hereinafter abbreviated as “IMI”) in the same manner as that used for MAP, and the number of eggs laid during 90 minutes was counted. Five nematodes were transferred to each plate, and the count was obtained for each plate.

nematodes [2] = assay: behavioral sensitization analysis: MAP pretreatment, washout on E. coli lawn, then drug challenge and body bend count
Method: MAP hydrochloride was dissolved in sterilized pure water at a 100-fold concentration, and 50 μL of the solution was applied to a 35-mm NGM plate (5 mL). As a control group, sterilized water used as a solvent was similarly applied to prepare an assay plate. Apomorphine (hereinafter also abbreviated as “APO”) dissolved in 0.1% aqueous ascorbic acid as a solvent was applied as a solution of 100-fold concentration in a similar manner to prepare an assay plate. For a control group, 0.1% aqueous ascorbic acid was used. The periphery of each assay plate was applied with a 3.5 mol/L sucrose solution to prevent nematodes from invading the back of the plate. Adult-stage nematodes bred on the E. coli lawn were washed with S-basal buffer (Genetics, 77, pp. 71-94, 1974), then transferred to each of the aforementioned assay plates, and left at room temperature with light shielding for one hour in the MAP treatment or 30 minutes in the APO treatment, and the number of body bends over 20 seconds was counted under a stereoscopic microscope. In the behavioral sensitization analysis, nematodes treated on the MAP-containing NGM plate for one hour were returned to the E. coli lawn, bred at 20° C. for a predetermined time and then treated with various drugs, and their behavior was observed.

nematodes [3] = assay: slowing response: number of body bends over 20 seconds on drug-containing assay plate; conditions: acute treatment on plate containing no feed
Method: Nematodes were bred on a lawn of E. coli OP50 coated on a 60-mm NGM plate (Genetics, 77, pp. 71-94, 1974) in an incubator at 20° C.
MAP hydrochloride was dissolved in sterilized pure water at a 100-fold concentration, and 50 μL of the solution was applied to a 35-mm NGM plate (5 mL). As a control group, sterilized water used as a solvent was similarly applied to prepare an assay plate. Apomorphine (hereinafter also abbreviated as “APO”) dissolved in 0.1% aqueous ascorbic acid as a solvent was applied as a solution of 100-fold concentration in a similar manner to prepare an assay plate. For a control group, 0.1% aqueous ascorbic acid was used. The periphery of each assay plate was applied with a 3.5 mol/L sucrose solution to prevent nematodes from invading the back of the plate. Adult-stage nematodes bred on the E. coli lawn were washed with S-basal buffer (Genetics, 77, pp. 71-94, 1974), then transferred to each of the aforementioned assay plates, and left at room temperature with light shielding for one hour in the MAP treatment or 30 minutes in the APO treatment, and the number of body bends over 20 seconds was counted under a stereoscopic microscope. […]

nematodes [4] = assay: screening for chemical substance inhibiting establishment of MAP-induced behavioral sensitization; conditions: ondansetron 1 or 10 μM with 300 μM MAP and overnight; MAP challenge next day
Method: In an incubator inside of which was maintained at 20° C., nematodes were bred on an Escherichia coli lawn prepared by applying the E. coli OP50 strain on a 60-mm NGM plate (Genetics, 77, pp. 71-94, 1974).
MAP hydrochloride was dissolved in pure water to prepare a 30 mM solution, and 50 μL of the solution was applied to a 35-mm NGM plate (5 mL) to prepare a 300 μM MAP plate. This MAP plate was further applied with 50 μL of an ondansetron solution (0.1 or 1 mM) dissolved in 100 mM NaCl or 0.1 N hydrochloric acid and adjusted to neutral pH by using NaOH to complete an assay plate. Nematodes (adults) bred on the Escherichia coli lawn were washed with S-basal buffer (Genetics, 77, pp. 71-94, 1974) for a short period of time, and then incubated on each of the aforementioned assay plates at 20° C. for one hour with light shielding. For this procedure, the periphery of each assay plate was applied with a 3.5 M sucrose solution to prevent nematodes from invading the back of the assay plate. […] On the following day, the nematodes were washed with S-basal buffer for a short period of time and transferred onto a MAP challenge plate prepared by applying 50 μL of a 10 μM MAP solution on a 35-mm NGM plate (5 mL), and the number of body bends over 20 seconds was counted under a stereoscopic microscope.

## CN[C@@H](C)Cc1ccccc1 [MAP, methamphetamine]
Nematodes [1]; MAP treatment on the previous day, IMI challenge
  influence of MAP pretreatment on IMI-induced egg-laying behavior: had no effect on IMI-induced egg-laying behavior; also recorded: had no influence on the egg-laying behavior promoted by IMI
Nematodes [2]; 300 μmol/L MAP experienced on the previous day, MAP challenge next day
  susceptibility to MAP-induced slowing response (establishment of behavioral sensitization): increased susceptibility to a treatment with MAP was observed; also recorded: the susceptibility was increased
Nematodes [2]; MAP pretreatment on previous day at various concentrations
  dependence of establishment of behavioral sensitization on MAP pretreatment concentration: dependent on the MAP concentration used for pretreatment; also recorded: dependent on the concentration of MAP experienced on the previous day
Nematodes [2]; MAP pretreatment, APO challenge
  APO-induced slowing response after MAP pretreatment (cross of behavioral sensitization): increased susceptibility to APO and induced slowing responses even at a low concentration; also recorded: enhanced by an MAP pretreatment
Nematodes [2]; MAP washout period from pretreatment to challenge
  duration of MAP-induced behavioral sensitization: at least 2 days
Nematodes [3]
  locomotion (slowing response): inhibited locomotion of nematodes in a concentration-dependent manner; also recorded: inhibited the locomotion in a concentration-dependent manner

## Cc1nccn1CC1CCc2c(c3ccccc3n2C)C1=O (stereo not drawn) [ondansetron]
Nematodes [4]
  establishment of MAP-induced behavioral sensitization: inhibition of establishment of MAP-induced behavioral sensitization; also recorded: exhibits an antagonistic action on the establishment of MAP-induced behavioral sensitization

## CN(C)CCCN1c2ccccc2CCc2ccccc21 [IMI, imipramine]
Nematodes [1]; IMI applied on NGM plate, eggs laid during 90 minutes
  egg laying behavior: increased egg laying behavior in a concentration-dependent manner; also recorded: promoted egg laying in a concentration-dependent manner

## CN1CCc2cccc3c2[C@H]1Cc1ccc(O)c(O)c1-3 [APO, Apomorphine]
Nematodes [3]
  locomotion (slowing response): induced slowing responses in a concentration-dependent manner; also recorded: inhibited the locomotion in a concentration-dependent manner
